Measured values from publication PMC6556873, “Rapid Covalent-Probe Discovery by Electrophile-Fragment Screening” (Journal of the American Chemical Society, 2019).
Like-named read-outs stand apart in the source and are kept apart here.

Tests used:
in vitro [1] = assay: in vitro; set-up: species or system HB2, HEK293; conditions: human, ccd841 cells
in vitro [2] = assay: in vitro; set-up: species or system HB2, CCD841; conditions: human, hek293 cells
PCAF = target: T1, PCAF (Homo sapiens, UniProt Q92831); set-up: Intact protein LC/MS covalent labelling, fragments in pools of five, 200 uM each, 4 °C; conditions: 24 h, 4 °C, pool of five; 200 µM; covalent
T1 construct: gene KAT2B
T1 sequence (Q92831 whole entry, the tested form may be a part): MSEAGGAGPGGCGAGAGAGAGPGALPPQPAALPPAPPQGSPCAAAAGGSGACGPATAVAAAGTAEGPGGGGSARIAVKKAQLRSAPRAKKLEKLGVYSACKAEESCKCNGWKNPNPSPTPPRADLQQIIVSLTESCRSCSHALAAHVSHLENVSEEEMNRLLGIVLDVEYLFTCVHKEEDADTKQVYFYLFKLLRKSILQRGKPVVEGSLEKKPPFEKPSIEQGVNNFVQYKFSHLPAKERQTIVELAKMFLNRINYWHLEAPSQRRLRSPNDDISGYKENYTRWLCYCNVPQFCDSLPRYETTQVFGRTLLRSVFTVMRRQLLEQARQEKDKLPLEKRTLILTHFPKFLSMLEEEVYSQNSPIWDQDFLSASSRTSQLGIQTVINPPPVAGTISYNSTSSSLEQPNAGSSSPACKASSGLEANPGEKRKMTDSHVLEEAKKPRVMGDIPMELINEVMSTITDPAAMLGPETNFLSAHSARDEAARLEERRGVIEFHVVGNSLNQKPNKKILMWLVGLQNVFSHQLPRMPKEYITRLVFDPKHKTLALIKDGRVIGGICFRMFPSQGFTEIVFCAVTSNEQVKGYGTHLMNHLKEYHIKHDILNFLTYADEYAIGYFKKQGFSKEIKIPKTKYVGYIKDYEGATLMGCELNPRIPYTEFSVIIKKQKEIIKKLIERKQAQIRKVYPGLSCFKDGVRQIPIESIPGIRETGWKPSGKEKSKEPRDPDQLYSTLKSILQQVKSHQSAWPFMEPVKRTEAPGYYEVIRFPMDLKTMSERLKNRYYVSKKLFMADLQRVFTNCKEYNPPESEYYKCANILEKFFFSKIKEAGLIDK

BSA = target: T2, BSA (Bos taurus, UniProt P02769); set-up: Intact protein LC/MS covalent labelling, fragments in pools of five, 200 uM each, 4 °C; conditions: 24 h, 4 °C, pool of five; 200 µM; covalent
T2 construct: gene ALB
T2 sequence (P02769 whole entry, the tested form may be a part): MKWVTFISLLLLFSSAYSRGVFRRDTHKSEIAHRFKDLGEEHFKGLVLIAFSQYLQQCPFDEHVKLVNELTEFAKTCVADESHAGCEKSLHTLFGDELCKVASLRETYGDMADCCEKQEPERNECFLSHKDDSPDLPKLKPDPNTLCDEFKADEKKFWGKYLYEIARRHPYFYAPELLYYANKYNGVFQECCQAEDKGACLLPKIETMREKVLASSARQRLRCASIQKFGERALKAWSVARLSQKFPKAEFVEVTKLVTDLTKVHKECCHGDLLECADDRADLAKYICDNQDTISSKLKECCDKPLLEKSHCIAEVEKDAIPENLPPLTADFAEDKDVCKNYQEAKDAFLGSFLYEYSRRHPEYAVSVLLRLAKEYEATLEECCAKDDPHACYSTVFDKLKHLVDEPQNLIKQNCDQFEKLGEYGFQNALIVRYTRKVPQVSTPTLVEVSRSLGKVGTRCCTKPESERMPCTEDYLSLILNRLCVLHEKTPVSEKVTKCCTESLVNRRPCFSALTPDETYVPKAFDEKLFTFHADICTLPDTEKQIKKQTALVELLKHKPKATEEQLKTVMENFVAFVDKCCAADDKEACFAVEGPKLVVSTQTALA

NUDT7 = target: T3, NUDT7 (Homo sapiens, UniProt P0C024); set-up: Intact protein LC/MS covalent labelling, fragments in pools of five, 200 uM each, 4 °C; conditions: 24 h, 4 °C, pool of five; 200 µM; covalent
T3 construct: residues 14-235, E. coli, pNIC28-Bsa4, N-terminal His6 tag removed by TEV, construct 26672 Da
T3 sequence (P0C024 14-235): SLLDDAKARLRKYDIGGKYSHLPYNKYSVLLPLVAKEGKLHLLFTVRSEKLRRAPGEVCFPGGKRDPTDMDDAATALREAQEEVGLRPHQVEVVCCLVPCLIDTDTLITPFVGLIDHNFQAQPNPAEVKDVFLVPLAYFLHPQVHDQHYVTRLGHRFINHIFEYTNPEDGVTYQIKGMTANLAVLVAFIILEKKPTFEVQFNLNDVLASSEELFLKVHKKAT

OTUB2 (OTUB2A) = target: T4, OTUB2 (OTUB2A) (Homo sapiens, UniProt Q96DC9); set-up: Intact protein LC/MS covalent labelling, fragments in pools of five, 200 uM each, 4 °C; conditions: 24 h, 4 °C, pool of five; 200 µM; covalent
T4 construct: full length residues 1-234, E. coli BL21(DE3)-R3, His tag removed by TEV, construct 27312 Da
T4 sequence (Q96DC9 1-234): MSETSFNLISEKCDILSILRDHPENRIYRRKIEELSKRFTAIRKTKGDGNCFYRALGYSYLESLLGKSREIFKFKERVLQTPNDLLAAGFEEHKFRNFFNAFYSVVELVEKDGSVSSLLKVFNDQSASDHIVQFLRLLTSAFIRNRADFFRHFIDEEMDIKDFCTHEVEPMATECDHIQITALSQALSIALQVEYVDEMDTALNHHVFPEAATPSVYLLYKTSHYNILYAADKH

in vitro [3] = assay: in vitro; set-up: species or system CCD841, HEK293; conditions: human, hb2 cells, read-out: HB-2 Cells Viability (%)

Row | SMILES | viability at 48 h, 10 µM (in vitro [1]) [%] | viability at 48 h, 10 µM (in vitro [2]) [%] | PCAF (PCAF) | BSA (BSA) | NUDT7 (NUDT7) | OTUB2 (OTUB2 (OTUB2A)) | viability at 48 h, 10 µM (in vitro [3]) [%]
1 | Cc1ccc(CNC(=O)CCl)s1 [PCM-0102973] | 90.8 | 106 | 0 | 0.19 | 0.11 | 0.75 | 98
2 | CC(C)N(C)C(=O)C1CCN(C(=O)CCl)CC1 [PCM-0102974] | 84 | 79.8 | 0 | 0 | 0 | 0 | 86.7
3 | CN(C(=O)CCl)c1nccs1 [PCM-0102975] | 118 | 97 | 0 | 0 | 0 | 0 | 99.8
4 | COC(=O)c1cccc(NC(=O)CCl)n1 [PCM-0102977] | 101 | 105 | 0 | 0 | 0 | 0 | 103
5 | CCN(C(=O)CCl)c1ccccc1C [PCM-0102980] | 85.7 | 66.1 | 0 | 0.07 | 0.43 | 0 | 93.4
6 | CC(C)(C)OC(=O)CNC(=O)CCl [PCM-0102981] | 109 | 106 | 0 | 0.18 | 0 | 0 | 106
7 | O=C(CCl)NNC(=O)c1ccco1 [PCM-0102985] | 89.7 | 100 | 0 | 0.2 | 0 | 0.27 | 96.9
8 | C=CC(=O)NCc1cc2sccc2s1 [PCM-0102986] | 111 | 78.6 | 0 | 0 | 0 | 0.08 | 98.7
9 | CN(Cc1cccc(C(F)(F)F)c1)C(=O)CCl [PCM-0102987] | 45.2 | 6.7 | 0 | 0 | 0.09 | 0 | 5.3
10 | CN(Cc1nc2ccccc2s1)C(=O)CCl [PCM-0102988] | 42.8 | 2.9 | 0 | 0 | 0.3 | 0 | 9.3
11 | O=C(CCl)Nc1ccc(Br)cc1 [PCM-0102992] | 52.9 | 4.4 | 0 | 0 | 0.11 | 0.08 | 12.2
12 | C=CC(=O)Nc1ccc(OC)c(F)c1 [PCM-0102995] | 106 | 80.5 | 0 | 0 | 0 | 0 | 104
13 | O=C(CCl)N1CCN(C(=O)C2COc3ccccc3O2)CC1 (centres unmarked) [PCM-0102996] | 56.4 | 5.8 | 0 | 0 | 0 | 0.13 | 19.8
14 | O=C(CCl)NNC(=O)CC1CCS(=O)(=O)C1 (centres unmarked) [PCM-0102998] | 100 | 112 | 0 | 0 | 0 | 0.69 | 101
15 | C=CC(=O)N1CCN(C(=O)C2COc3ccccc3O2)CC1 (centres unmarked) [PCM-0102999] | 112 | 88.3 | 0 | 0 | 0 | 0 | 100
16 | O=C(CCl)NC(=O)NC1CCCC1 [PCM-0103001] | 80.2 | 66.7 | 0 | 0 | 0 | 0 | 66.4
17 | O=C(CCl)Nc1ccc(F)cc1F [PCM-0103004] | 62.1 | 32 | 0 | 0 | 0 | 0.26 | 54.2
